From patent US20160137639A1, “TRIAZOLE-ISOXAZOLE COMPOUND AND MEDICAL USE THEREOF” (JAPAN TOBACCO INC., priority 2012, published 2016)

target: T1, human RORγ (Homo sapiens, UniProt P51449); assay: Luciferase reporter gene assay of inhibitory effect against RORγ transcriptional activity (GAL4-hRORγ plasmid in CHO cells); assay type: cell-based; details: read-out: LUC EC50 (μM) hRORg
T1 construct: human, NM_005060.3 and from Ser253 to Lys518; expressed in transfected cells; host or cells: CHO cells (transient co-transfection with pG5-Luc reporter)
T1 sequence (P51449 253-518): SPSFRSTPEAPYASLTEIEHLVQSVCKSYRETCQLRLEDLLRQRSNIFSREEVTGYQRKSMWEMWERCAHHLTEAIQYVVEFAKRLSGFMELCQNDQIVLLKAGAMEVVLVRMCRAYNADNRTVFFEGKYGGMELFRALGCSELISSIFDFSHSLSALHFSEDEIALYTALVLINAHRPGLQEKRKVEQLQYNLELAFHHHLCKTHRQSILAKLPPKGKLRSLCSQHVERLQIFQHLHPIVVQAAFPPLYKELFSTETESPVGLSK

SMILES	EC50 [µM]
Cc1ccc(NC(=O)[C@H]2CC(=O)N(C)[C@@H]2c2nnc(CCCC(C)(C)C)n2C2CC2)c(C)c1 [Example F-388]	< 3
Cc1ccc(NC(=O)CC(c2nnc(CCCC(C)(C)C)n2C2CC2)C(C)C)c(C)c1 (racemic) [Example F-453]	< 3
Cc1ccc(NC(=O)C(C)C(CCOCc2ccccc2)c2nnc([C@H]3C[C@@H](CC(C)C)C3)n2C2CC2)c(C)c1 (stereo partly drawn) [Example F-489]	> 3
Cc1ccc(NC(=O)CCc2nnc(C(O)CCC(C)(C)C)n2C2CC2)c(C)c1 (racemic) [Example F-367]	> 3
CC(C)CCc1nnc(CCC(=O)N[C@@H](C)c2ccccc2)n1C1CC1 [Example F-62]	> 3
Cc1ccc(NC(=O)CC(CCOCc2ccccc2)c2nnc(-c3cc(CC(C)C)on3)n2C2CC2)c(C)c1 (racemic) [Example F-455]	> 3
CC(C)C(F)(F)c1cc(-c2onc([C@@H](CCC(=O)O)CC(=O)Nc3ccc(Cl)cc3F)c2C2CC2)no1 [Example E-55]	< 3

same assay, conditions: read-out: LUC EC50 hRORg

SMILES	EC50 [µM]
Cc1c(F)ccc(NC(=O)C[C@H](OCC(F)(F)F)c2nnc(-c3cc(CC(C)C)on3)n2C2CC2)c1C [Example F-634]	< 3
Cc1ccc(NC(=O)C[C@H](CC(N)=O)c2noc([C@H]3C[C@@H](CC(C)C)C3)c2C2CC2)c(C)c1 [Example F-642]	< 3
Cc1cc(F)ccc1NC(=O)C[C@H](CCO)c1nnc([C@H]2C[C@@H](CC(C)C)C2)n1C1CC1 [Example F-594]	< 3
COC1C[C@H](C(=O)Nc2ccc(C)cc2C)[C@@H](c2nnc([C@H]3C[C@@H](CC(C)C)C3)n2C2CC2)C1 (single isomer, unassigned) [Example F-556]	< 3
CCOC(=O)/C=C/c1c(CCC(=O)Nc2ccc(C)cc2C)noc1[C@H]1C[C@@H](CC(C)C)C1 [Example F-645]	> 3
Cc1ccc(NC(=O)CC(CC(=O)OC(C)(C)C)c2nnc([C@H]3C[C@@H](CC(C)C)C3)n2C2CC2)c(C)c1 (mixture of isomers) [Example F-498]	< 3
CC(C)C[C@H]1C[C@@H](c2nnc([C@@H](CCO)CC(=O)Nc3ccc(C(F)(F)F)cc3C(F)(F)F)n2C2CC2)C1 [Example F-524]	< 3
Cc1ccc(NC(=O)[C@H](CCC(=O)O)Cc2noc([C@H]3C[C@@H](CC(C)(C)C)C3)c2C2CC2)c(Cl)c1 [Example F-683]	< 3
Cc1ccc(NC(=O)[C@H]2CC(N(C)C(C)C)C[C@@H]2c2nnc([C@H]3C[C@@H](CC(C)C)C3)n2C2CC2)c(C)c1 (single isomer, unassigned) [Example F-539]	> 3
Cc1ccc(NC(=O)C[C@H](OCC(C)C)c2nnc([C@H]3C[C@@H](CC(C)C)C3)n2C2CC2)c(C)c1 [Example F-582]	< 3
Cc1ccc(NC(=O)C[C@H](CCC(=O)O)c2cc([C@H]3C[C@@H](CC(C)(C)C)C3)on2)c(Cl)c1 [Example F-676]	< 3
Cc1ccc(NC(=O)C[C@H](CC#N)c2noc([C@H]3C[C@@H](CC(C)C)C3)c2C2CC2)c(C)c1 [Example F-638]	< 3
CC(C)(C)C[C@H]1C[C@@H](c2onc([C@@H](CCC(=O)O)CC(=O)NC34CC(C3)C4)c2C2CC2)C1 [Example F-712]	> 3
Cc1ccc(NC(=O)C[C@H](CCC(=O)O)c2noc3c2C(C)CCC3CCC(C)C)c(Cl)c1 (single isomer, unassigned) [Example F-693]	< 3

target: T2, mouse RORγ (Mus musculus, UniProt P51450); assay: Luciferase reporter gene assay of inhibitory effect against RORγ transcriptional activity (GAL4-mRORγ plasmid in CHO cells); assay type: cell-based; details: read-out: LUC EC50 (μM) mRORg
T2 construct: mouse, NM_011281.2 and from Ile251 to Lys516; expressed in transfected cells; host or cells: CHO cells (transient co-transfection with pG5-Luc reporter)
T2 sequence (P51450 251-516): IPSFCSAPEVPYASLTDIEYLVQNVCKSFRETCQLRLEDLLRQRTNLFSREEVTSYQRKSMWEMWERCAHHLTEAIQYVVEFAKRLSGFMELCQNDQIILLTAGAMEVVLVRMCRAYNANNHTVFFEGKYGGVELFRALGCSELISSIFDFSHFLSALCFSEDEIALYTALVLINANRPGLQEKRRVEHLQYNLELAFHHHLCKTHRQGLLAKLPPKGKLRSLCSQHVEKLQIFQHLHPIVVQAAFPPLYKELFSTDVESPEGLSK
Outline: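 Readout is intracellular luciferase after 2-day compound exposure (8 concentrations, 0.1% DMSO) in CHO cells expressing GAL4 fused to mouse RORγ LBD residues Ile251–Lys516 plus pG5-Luc reporter. EC50 fitted from %-of-control; points showing resazurin-detected cytotoxicity dropped.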

SMILES	EC50 [µM]
Cc1ccc(NC(=O)[C@H]2CC(=O)N(C)[C@@H]2c2nnc(CCCC(C)(C)C)n2C2CC2)c(C)c1 [Example F-388]	< 3
Cc1ccc(NC(=O)CC(c2nnc(CCCC(C)(C)C)n2C2CC2)C(C)C)c(C)c1 (racemic) [Example F-453]	< 3
Cc1ccc(NC(=O)C(C)C(CCOCc2ccccc2)c2nnc([C@H]3C[C@@H](CC(C)C)C3)n2C2CC2)c(C)c1 (stereo partly drawn) [Example F-489]	< 3
Cc1ccc(NC(=O)CCc2nnc(C(O)CCC(C)(C)C)n2C2CC2)c(C)c1 (racemic) [Example F-367]	< 3
CC(C)CCc1nnc(CCC(=O)N[C@@H](C)c2ccccc2)n1C1CC1 [Example F-62]	> 3
Cc1ccc(NC(=O)CC(CCOCc2ccccc2)c2nnc(-c3cc(CC(C)C)on3)n2C2CC2)c(C)c1 (racemic) [Example F-455]	< 3
CC(C)C(F)(F)c1cc(-c2onc([C@@H](CCC(=O)O)CC(=O)Nc3ccc(Cl)cc3F)c2C2CC2)no1 [Example E-55]	< 3

same assay, conditions: read-out: LUC EC50 mRORg

SMILES	EC50 [µM]
Cc1c(F)ccc(NC(=O)C[C@H](OCC(F)(F)F)c2nnc(-c3cc(CC(C)C)on3)n2C2CC2)c1C [Example F-634]	< 3
Cc1ccc(NC(=O)C[C@H](CC(N)=O)c2noc([C@H]3C[C@@H](CC(C)C)C3)c2C2CC2)c(C)c1 [Example F-642]	< 3
Cc1cc(F)ccc1NC(=O)C[C@H](CCO)c1nnc([C@H]2C[C@@H](CC(C)C)C2)n1C1CC1 [Example F-594]	< 3
COC1C[C@H](C(=O)Nc2ccc(C)cc2C)[C@@H](c2nnc([C@H]3C[C@@H](CC(C)C)C3)n2C2CC2)C1 (single isomer, unassigned) [Example F-556]	< 3
CCOC(=O)/C=C/c1c(CCC(=O)Nc2ccc(C)cc2C)noc1[C@H]1C[C@@H](CC(C)C)C1 [Example F-645]	> 3
Cc1ccc(NC(=O)CC(CC(=O)OC(C)(C)C)c2nnc([C@H]3C[C@@H](CC(C)C)C3)n2C2CC2)c(C)c1 (mixture of isomers) [Example F-498]	< 3
CC(C)C[C@H]1C[C@@H](c2nnc([C@@H](CCO)CC(=O)Nc3ccc(C(F)(F)F)cc3C(F)(F)F)n2C2CC2)C1 [Example F-524]	< 3
Cc1ccc(NC(=O)[C@H](CCC(=O)O)Cc2noc([C@H]3C[C@@H](CC(C)(C)C)C3)c2C2CC2)c(Cl)c1 [Example F-683]	< 3
Cc1ccc(NC(=O)[C@H]2CC(N(C)C(C)C)C[C@@H]2c2nnc([C@H]3C[C@@H](CC(C)C)C3)n2C2CC2)c(C)c1 (single isomer, unassigned) [Example F-539]	< 3
Cc1ccc(NC(=O)C[C@H](OCC(C)C)c2nnc([C@H]3C[C@@H](CC(C)C)C3)n2C2CC2)c(C)c1 [Example F-582]	< 3
Cc1ccc(NC(=O)C[C@H](CCC(=O)O)c2cc([C@H]3C[C@@H](CC(C)(C)C)C3)on2)c(Cl)c1 [Example F-676]	< 3
Cc1ccc(NC(=O)C[C@H](CC#N)c2noc([C@H]3C[C@@H](CC(C)C)C3)c2C2CC2)c(C)c1 [Example F-638]	< 3
CC(C)(C)C[C@H]1C[C@@H](c2onc([C@@H](CCC(=O)O)CC(=O)NC34CC(C3)C4)c2C2CC2)C1 [Example F-712]	> 3
Cc1ccc(NC(=O)C[C@H](CCC(=O)O)c2noc3c2C(C)CCC3CCC(C)C)c(Cl)c1 (single isomer, unassigned) [Example F-693]	< 3
